How the values were obtained:
[1] = test system: B cell lymphomas and T cell leukemias; assay: Cell viability assay (trypan blue exclusion) after incubation with NMT inhibitors; type: cell-based, human; conditions: 24 h, increasing concentration, control adjusted to 100%
Procedure: Tris dibutylbenzinylidene acetone paladium (TrisDBA) was a kind gift of Dr. Arbiser. Cells were incubated at increasing concentrations for 24 hours with TrisDBA (or DMSO for control) or for 24 and 48 hours with DDD85646.
(§1) B and T cell viability was measured using the trypan blue exclusion method. Cells were grown in confluency conditions (2×10^6 cells/mL maximum) assuring the minimum basal apoptosis. After incubation with NMT inhibitors, about 20 000 cells (10 μL) were incubated with 10 μL of TC10™ Trypan Blue Dye (Biorad) for 15 min. Cell viability was quantified using the TC10™ automated cell counter (Biorad).
FIG. 2 depicts the sensitivity of various B cell lymphomas and T cell leukemias to the NMT inhibitors tris-dibenzylideneacetone-dipalladium (Tris-DBA). Various B and T cells were incubated for 24 h with increasing concentration of Tris DBA. Cell viability was measured using trypan blue exclusion method and adjusted to 100% for control.

NMT1 = target: T1, NMT1 (Homo sapiens, UniProt P30419); assay: In vitro NMT activity (peptide myristoylation) assay with purified recombinant enzyme; type: biochemical; conditions: purified recombinant NMT1, radiolabeled myristoyl peptide on phosphocellulose paper
T1 construct: His (N); made in house
T1 sequence (P30419 1-496): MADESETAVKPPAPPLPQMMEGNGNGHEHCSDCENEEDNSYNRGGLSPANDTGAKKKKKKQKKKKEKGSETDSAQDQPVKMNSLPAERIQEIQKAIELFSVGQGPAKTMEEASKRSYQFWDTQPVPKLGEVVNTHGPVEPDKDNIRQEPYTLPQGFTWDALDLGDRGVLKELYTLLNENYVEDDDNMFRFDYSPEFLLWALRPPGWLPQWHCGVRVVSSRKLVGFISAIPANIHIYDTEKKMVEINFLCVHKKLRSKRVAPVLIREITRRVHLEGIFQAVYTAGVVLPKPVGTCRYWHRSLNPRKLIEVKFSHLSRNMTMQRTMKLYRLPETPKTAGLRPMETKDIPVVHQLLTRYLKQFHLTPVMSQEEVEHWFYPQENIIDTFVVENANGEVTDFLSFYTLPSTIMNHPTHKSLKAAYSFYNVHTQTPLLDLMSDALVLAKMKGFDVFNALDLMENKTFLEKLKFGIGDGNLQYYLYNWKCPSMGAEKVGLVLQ
From the text: (§2) N-myristoyltransferase activity assay protocol was adapted from Raju, R. V., and Sharma, R. K. (1999) Preparation and assay of myristoyl-CoA:protein N-myristoyltransferase. Methods Mol Biol 116, 193-211. [^3H] myristoyl-CoA was freshly synthesized for each experiment, as previously described by Towler, D., and Glaser, L. (1986) Protein fatty acid acylation: enzymatic synthesis of an N-myristoylglycyl peptide. Proc Nal Acad Sci USA 83, 2812-2816. Briefly, cells were resuspended in 0.25 M sucrose buffer (50 mM NaH2PO4, pH 7.4) and subjected to 2 rounds of sonication at level 6.0 on a Branson Sonicator. […] Discs were washed (washing buffer: 25 mM Tris buffer, pH 7.4) to remove the residual radioactivity ([^3H]-myristate and [^3H]-myristoyl-CoA) while [^3H]-myristoyl-peptide is retained on the phosphocellulose paper. Radioactivity was quantified by liquid scintillation counting and converted into pMol of myristoylated peptide (Raju, R. V., and Sharna, R. K. (1999) Preparation and assay of myristoyl-CoA:protein N-myristoyltransferase. Methods Mol Biol 116, 193-211
(§3) NMT activity was assayed using a peptide myristoylation assay with purified recombinant NMT1 and NMT2. NMT activity was calculated from the amount of radiolabeled myristoyl peptide produced and detected on phosphocellulose paper (adapted from King et al. 1991, Anal Biochem.).

NMT2 = target: T2, NMT2 (Homo sapiens, UniProt O60551); assay: as above; type: biochemical; conditions: purified recombinant NMT2, radiolabeled myristoyl peptide on phosphocellulose paper
T2 construct: His (N); made in house
T2 sequence (O60551 1-498): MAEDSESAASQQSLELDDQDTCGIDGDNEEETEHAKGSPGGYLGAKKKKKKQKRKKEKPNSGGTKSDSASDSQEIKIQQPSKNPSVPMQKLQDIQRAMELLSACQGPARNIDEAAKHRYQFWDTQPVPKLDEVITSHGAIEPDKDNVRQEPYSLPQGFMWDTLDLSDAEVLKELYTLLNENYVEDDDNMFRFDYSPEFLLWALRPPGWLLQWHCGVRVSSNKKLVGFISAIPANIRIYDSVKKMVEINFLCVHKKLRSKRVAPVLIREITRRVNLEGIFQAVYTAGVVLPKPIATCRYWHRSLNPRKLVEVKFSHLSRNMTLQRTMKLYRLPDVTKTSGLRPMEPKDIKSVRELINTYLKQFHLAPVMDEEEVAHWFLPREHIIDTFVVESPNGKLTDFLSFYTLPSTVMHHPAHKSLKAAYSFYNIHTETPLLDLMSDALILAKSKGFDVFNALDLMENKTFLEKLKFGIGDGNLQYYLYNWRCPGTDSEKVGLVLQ
From the text: as §2, §3

Ramos B lymphoma cells = assay: Survival of Ramos cells transfected with pcDNA3.1-V5-NMT2 in the presence of TrisDBA (trypan blue exclusion); type: cell-based, human; conditions: TrisDBA 5 ug/ml, 24 hours
Procedure: B cells were transfected using the Neon® transfection system (Life technologies) following manufacturer's instructions and optimized protocol for Ramos B cells transfection (pulse voltage 1,300V; pulse width 20 ms, 2 pulses and 7.7.10^6 cells/mL) adapted for 100 μL tips. Classically, two transfections were pulled to obtained enough living cells to perform a viability assay.
as §1
In this example, transfection of Ramos B lymphoma cells (which, as shown herein, expresses NMT1) with pcDNA3.1-V5-NMT2 increased survival to TrisDBA (5 ug/ml) 2.5 fold vs control cells transfected with empty plasmid vector. In FIG. 6, 20×10^6 Ramos B lymphoma cells were transfected with 32 μg of DNA (pcDNA3.1-V5-empty or pcDNA3.1-V5-NMT2) using the Neon Transfection System (Invitrogen) following the recommended protocol for Ramos cell line (1,350 Volt, 30 ms). […] After a PBS wash, cells were resuspended and grown in RPMI containing TrisDBA (5 ug/ml) for 24 hours then counted using the trypan blue exclusion method (Panel A). […]

**Q.** With “tris-dibenzylideneacetone-dipalladium [Tris-DBA]” as the substance, how does the “Cell survival curves (sensitivity of B cell lymphomas versus other cells)” value [1] read?
**A.** more sensitive

**Q.** What about the “Inhibition of NMT activity” value (NMT1) of the same substance?
**A.** inhibits NMT in vitro

**Q.** What about the “Inhibition of NMT activity” value (NMT2) of the same substance?
**A.** inhibits NMT in vitro

**Q.** What about the “Increased survival of NMT2-transfected cells vs control cells transfected with empty plasmid vector” value (Ramos B lymphoma cells) of the same substance?
**A.** 2.5 fold
